The source made the active and inactive calls.
Tests used:
[1] = Counterscreen for AddAB inhibitors: absorbance-based bacterial cell-based high throughput dose response assay for inhibitors of bacterial viability. [Related pubchem assays (depositor defined):AID435030, AID449728, AID449731, AID488942, AID488955, AID488956]; type: functional
[2] = HepG2 cell cytotoxicity, dose response, cytotoxicity control for Shn3 inhibitor project, CellTiter-Glo, cherry-picked (AID 624134); type: functional, cell-based
[3] = target: T1, Exodeoxyribonuclease V (Escherichia coli (strain K12), UniProt P04993+P07648+P08394); assay: E. coli RecBCD inhibitors, dose response, counter-screen for AddAB inhibitor project, absorbance, V66 E. coli, mutant T4 phage (AID 492957); type: functional, cell-based, Escherichia coli str. K-12 substr. MG1655
T1 sequence (P04993 whole entry): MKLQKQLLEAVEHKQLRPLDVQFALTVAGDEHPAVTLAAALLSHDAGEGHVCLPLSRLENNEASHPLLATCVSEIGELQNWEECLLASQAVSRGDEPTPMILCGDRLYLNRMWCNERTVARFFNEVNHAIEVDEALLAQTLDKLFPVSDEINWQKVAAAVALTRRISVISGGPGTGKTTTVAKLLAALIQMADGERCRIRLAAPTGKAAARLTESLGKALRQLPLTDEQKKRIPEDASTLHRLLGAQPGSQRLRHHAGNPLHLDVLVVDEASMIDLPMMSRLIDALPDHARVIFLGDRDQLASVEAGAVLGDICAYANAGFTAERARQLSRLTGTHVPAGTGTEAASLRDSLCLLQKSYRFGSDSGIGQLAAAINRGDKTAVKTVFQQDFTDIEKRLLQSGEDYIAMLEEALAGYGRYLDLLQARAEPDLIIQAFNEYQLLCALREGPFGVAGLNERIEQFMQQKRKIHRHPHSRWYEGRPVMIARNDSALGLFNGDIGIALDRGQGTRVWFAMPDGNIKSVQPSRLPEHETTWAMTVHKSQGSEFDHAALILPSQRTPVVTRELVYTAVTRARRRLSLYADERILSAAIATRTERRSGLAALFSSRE
T1 sequence (P07648 whole entry): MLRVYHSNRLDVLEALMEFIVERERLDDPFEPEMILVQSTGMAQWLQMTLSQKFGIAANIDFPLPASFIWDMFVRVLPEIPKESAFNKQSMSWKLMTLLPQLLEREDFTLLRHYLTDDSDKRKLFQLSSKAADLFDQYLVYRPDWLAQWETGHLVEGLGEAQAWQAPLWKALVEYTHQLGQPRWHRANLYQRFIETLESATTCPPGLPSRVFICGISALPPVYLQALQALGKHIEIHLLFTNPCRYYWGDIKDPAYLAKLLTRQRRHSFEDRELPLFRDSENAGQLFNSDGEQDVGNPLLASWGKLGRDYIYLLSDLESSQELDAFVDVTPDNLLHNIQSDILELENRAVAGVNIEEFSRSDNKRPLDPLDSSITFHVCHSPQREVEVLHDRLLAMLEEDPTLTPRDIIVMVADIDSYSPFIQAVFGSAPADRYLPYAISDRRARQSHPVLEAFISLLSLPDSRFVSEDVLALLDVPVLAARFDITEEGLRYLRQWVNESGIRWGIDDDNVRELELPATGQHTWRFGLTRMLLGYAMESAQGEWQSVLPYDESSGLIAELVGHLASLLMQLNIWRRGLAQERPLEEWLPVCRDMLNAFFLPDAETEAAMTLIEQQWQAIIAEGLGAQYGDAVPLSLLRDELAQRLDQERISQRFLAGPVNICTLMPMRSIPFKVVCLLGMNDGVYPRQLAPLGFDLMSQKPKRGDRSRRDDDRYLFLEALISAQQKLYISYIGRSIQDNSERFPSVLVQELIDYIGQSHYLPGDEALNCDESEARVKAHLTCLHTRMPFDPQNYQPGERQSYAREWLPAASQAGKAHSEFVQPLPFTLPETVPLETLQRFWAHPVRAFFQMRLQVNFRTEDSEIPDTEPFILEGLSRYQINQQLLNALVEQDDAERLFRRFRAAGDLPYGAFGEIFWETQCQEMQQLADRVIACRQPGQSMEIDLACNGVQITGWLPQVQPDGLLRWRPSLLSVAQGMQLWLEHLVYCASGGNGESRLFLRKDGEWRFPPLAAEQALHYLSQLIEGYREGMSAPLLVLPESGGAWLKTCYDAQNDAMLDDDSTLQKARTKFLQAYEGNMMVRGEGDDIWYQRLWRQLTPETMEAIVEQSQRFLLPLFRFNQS
T1 sequence (P08394 whole entry): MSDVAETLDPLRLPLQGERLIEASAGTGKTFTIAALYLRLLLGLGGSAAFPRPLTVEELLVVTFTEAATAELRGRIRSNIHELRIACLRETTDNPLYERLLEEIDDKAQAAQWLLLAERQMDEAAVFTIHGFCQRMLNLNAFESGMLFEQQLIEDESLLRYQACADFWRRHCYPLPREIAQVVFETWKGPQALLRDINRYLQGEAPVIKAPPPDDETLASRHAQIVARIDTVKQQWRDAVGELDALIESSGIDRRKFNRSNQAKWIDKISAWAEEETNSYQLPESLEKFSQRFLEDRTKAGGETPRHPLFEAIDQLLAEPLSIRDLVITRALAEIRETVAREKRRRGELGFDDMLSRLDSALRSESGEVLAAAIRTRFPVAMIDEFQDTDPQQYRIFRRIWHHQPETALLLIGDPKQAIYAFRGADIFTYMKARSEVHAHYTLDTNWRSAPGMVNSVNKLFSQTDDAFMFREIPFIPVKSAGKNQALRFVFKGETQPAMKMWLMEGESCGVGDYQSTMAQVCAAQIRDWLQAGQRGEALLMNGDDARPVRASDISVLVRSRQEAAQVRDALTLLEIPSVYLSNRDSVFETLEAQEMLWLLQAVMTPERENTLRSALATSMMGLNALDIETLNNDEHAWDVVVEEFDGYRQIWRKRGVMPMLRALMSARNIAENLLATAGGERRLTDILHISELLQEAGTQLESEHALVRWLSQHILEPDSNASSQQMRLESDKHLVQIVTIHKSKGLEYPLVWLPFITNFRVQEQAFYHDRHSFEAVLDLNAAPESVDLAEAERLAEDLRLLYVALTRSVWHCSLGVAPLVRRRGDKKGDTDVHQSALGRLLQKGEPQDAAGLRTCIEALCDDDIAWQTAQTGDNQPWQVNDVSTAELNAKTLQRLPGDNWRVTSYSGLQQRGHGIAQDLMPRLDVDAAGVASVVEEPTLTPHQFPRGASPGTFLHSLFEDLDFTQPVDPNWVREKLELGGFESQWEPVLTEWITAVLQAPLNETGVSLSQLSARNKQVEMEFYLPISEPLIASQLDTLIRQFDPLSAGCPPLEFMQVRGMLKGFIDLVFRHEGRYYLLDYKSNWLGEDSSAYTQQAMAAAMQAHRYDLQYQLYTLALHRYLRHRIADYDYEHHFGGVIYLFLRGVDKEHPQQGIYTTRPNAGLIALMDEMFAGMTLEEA

[4] = tested on: HEK293; assay: cytotoxicity in HEK293T NF-kB-Luc cells, SAR follow-up, cytotoxicity control for NF-kB activator project, cell-based, resazurin fluorescence (AID 493251); type: functional

Row | Compound | IC50 [1] | AC50 [2] | IC50 [3] | IC50 ([4]; Homo sapiens, HEK293) | IC50 ([4]; hek293)
1 | CCC(=O)NC(c1ccc(C)cc1)c1ccc2cccnc2c1O (centres undefined) | > 119 µM (inactive) | 1.24 µM (active) | > 119 µM (inactive) | 12.9 µM (active) | –
2 | CCCC(=O)NC(c1ccc(Cl)cc1)c1ccc2cccnc2c1O (centres undefined) | > 119 µM (inactive) | 1.17 µM (active) | > 119 µM (inactive) | 8.63 µM (active) | 9.55 µM (active)

— ChEMBL document CHEMBL1201862, “PubChem BioAssay data set” (2004)
